Experimental data from ChEMBL document CHEMBL1134665, “Synthesis and antitumor activity of ester-modified analogues of bengamide B” (J Med Chem, 2001).

Experiments:
MDA-MB-435 [1] = assay: In vivo percent body weight versus MDA-MB-435 human breast carcinoma cells implanted sc in mice at a dose 33 umol/Kg; type: functional
MDA-MB-435 [2] = assay: In vivo percent T/C against MDA-MB-435 human breast carcinoma cells implanted sc in mice at a dose 33 umol/Kg; type: functional
MDA-MB-435 [3] = assay: (§1) Antiproliferative activity against MDA-MB-435 human breast carcinoma cells in vitro using MDA-MB-435 monolayer growth assay.; type: functional
MDA-MB-435 [4] = assay: In vivo percent body weight versus MDA-MB-435 human breast carcinoma cells implanted sc in mice at a dose 10 umol/kg; type: functional
MDA-MB-435 [5] = assay: In vivo percent T/C against MDA-MB-435 human breast carcinoma cells implanted sc in mice at a dose 10 umol/kg; type: functional
MDA-MB-435 [6] = assay: as §1; type: functional, cell-based
MDA-MB-435 [7] = assay: In vivo percent T/C against MDA-MB-435 human breast carcinoma cells implanted sc in mice at a dose 84 umol/Kg; type: functional
MDA-MB-435 [8] = assay: In vivo percent T/C against MDA-MB-435 human breast carcinoma cells implanted sc in mice at a dose 279 umol/Kg; type: functional
MDA-MB-435 [9] = assay: In vivo for percent body weight against MDA-MB-435 human breast carcinoma cells implanted sc in mice at a dose 84 umol/kg; type: functional
MDA-MB-435 [10] = assay: In vivo for percent body weight against MDA-MB-435 human breast carcinoma cells implanted sc in mice at a dose 28 umol/kg; type: functional
MDA-MB-435 [11] = assay: In vivo percent T/C against MDA-MB-435 human breast carcinoma cells implanted sc in mice at a dose 28 umol/kg; type: functional
MDA-MB-435 [12] = assay: In vivo for percent body weight against MDA-MB-435 human breast carcinoma cells implanted sc in mice at a dose 279 umol/Kg; type: functional
MDA-MB-435 [13] = assay: In vivo for percent body weight against MDA-MB-435 human breast carcinoma cells implanted sc in mice at a dose 26 umol/kg; type: functional
MDA-MB-435 [14] = assay: In vivo for percent body weight against MDA-MB-435 human breast carcinoma cells implanted sc in mice at a dose 52 umol/Kg; type: functional
MDA-MB-435 [15] = assay: In vivo percent T/C against MDA-MB-435 human breast carcinoma cells implanted sc in mice at a dose 26 umol/kg; type: functional
MDA-MB-435 [16] = assay: In vivo percent T/C against MDA-MB-435 human breast carcinoma cells implanted sc in mice at a dose 52 umol/Kg; type: functional
MDA-MB-435 [17] = assay: In vivo for percent body weight against MDA-MB-435 human breast carcinoma cells implanted sc in mice at a dose 100 umol/Kg; type: functional
MDA-MB-435 [18] = assay: In vivo percent T/C against MDA-MB-435 human breast carcinoma cells implanted sc in mice at a dose 100 umol/kg; type: functional
MDA-MB-435 [19] = assay: In vivo for percent body weight against MDA-MB-435 human breast carcinoma cells implanted sc in mice at a dose m100 umol/Kg; type: functional
MDA-MB-435 [20] = assay: In vivo percent T/C against MDA-MB-435 human breast carcinoma cells implanted sc in mice at a dose 100 umol/Kg; type: functional
MDA-MB-435 [21] = assay: In vivo percent T/C against MDA-MB-435 human breast carcinoma cells implanted sc in mice at a dose 2 umol/kg; type: functional
MDA-MB-435 [22] = assay: In vivo for percent body weight against MDA-MB-435 human breast carcinoma cells implanted sc in mice at a dose 2 umol/kg; type: functional

Row | SMILES | Body weight (MDA-MB-435 [1]) [%] | T/C (MDA-MB-435 [2]) [%] | IC50 (MDA-MB-435 [3]) [nM] | Body weight (MDA-MB-435 [4]) [%] | T/C (MDA-MB-435 [5]) [%] | other results
1 | CCCCCCCCCCCCCC(=O)O[C@@H]1CCC(NC(=O)[C@H](OC)[C@H](O)[C@@H](O)[C@H](O)/C=C/C(C)(C)C)C(=O)NC1 (stereo partly specified) | 5.7 | <4 | < 10 | 7.4 | <41 | –
2 | CO[C@@H](C(=O)NC1CC[C@@H](OC(=O)Cc2cccnc2)CNC1=O)[C@H](O)[C@@H](O)[C@H](O)/C=C/C(C)(C)C (stereo partly specified) | 6.8 | 82 | 5850 | 6.4 | 69 | –
3 | CO[C@@H](C(=O)NC1CCCCN(C)C1=O)[C@H](O)[C@@H](O)[C@H](O)/C=C/C(C)C (stereo partly specified) | – | – | – | – | – | IC50 (MDA-MB-435 [6]): 2900 nM
4 | CO[C@@H](C(=O)NC1CCCCNC1=O)[C@H](O)[C@@H](O)[C@H](O)/C=C/C(C)C (stereo partly specified) | – | – | – | – | – | T/C (MDA-MB-435 [7]): 62%; T/C (MDA-MB-435 [8]): <19%; Body weight (MDA-MB-435 [9]): 7.1%; Body weight (MDA-MB-435 [10]): 8.4%; T/C (MDA-MB-435 [11]): 62%; Body weight (MDA-MB-435 [12]): 6.7%; IC50 (MDA-MB-435 [6]): 3300 nM
5 | CO[C@@H](C(=O)NC1CC[C@@H](OC(=O)/C=C/c2ccccc2)CNC1=O)[C@H](O)[C@@H](O)[C@H](O)/C=C/C(C)(C)C (stereo partly specified) | 7.5 | <63 | 20 | 7.4 | <64 | –
6 | CO[C@@H](C(=O)NC1CC[C@H](O)CN(C)C1=O)[C@H](O)[C@@H](O)[C@H](O)/C=C/C(C)C (stereo partly specified) | – | – | – | – | – | Body weight (MDA-MB-435 [13]): 9.5%; Body weight (MDA-MB-435 [14]): 0.8%; T/C (MDA-MB-435 [15]): 42%; T/C (MDA-MB-435 [16]): 41%; IC50 (MDA-MB-435 [6]): 2900 nM
7 | CO[C@@H](C(=O)NC1CC[C@@H](OC(=O)CCc2cccnc2)CNC1=O)[C@H](O)[C@@H](O)[C@H](O)/C=C/C(C)(C)C (stereo partly specified) | 3 | <44 | 460 | 10.1 | 92 | –
8 | CO[C@@H](C(=O)NC1CC[C@@H](OC(=O)Cc2ccccc2)CNC1=O)[C@H](O)[C@@H](O)[C@H](O)/C=C/C(C)(C)C (stereo partly specified) | 3.9 | <43 | 260 | 10.6 | 72 | –
9 | CO[C@@H](C(=O)NC1CC[C@@H](OC(=O)CC2CCCCC2)CNC1=O)[C@H](O)[C@@H](O)[C@H](O)/C=C/C(C)(C)C (stereo partly specified) | 3.5 | <34 | 60 | 4.6 | <47 | –
10 | CO[C@@H](C(=O)NC1CC[C@@H](OC(=O)C2CCCCC2)CNC1=O)[C@H](O)[C@@H](O)[C@H](O)/C=C/C(C)(C)C (stereo partly specified) | 3.5 | <7 | 4 | 10.5 | <58 | Body weight (MDA-MB-435 [17]): -2.6%; T/C (MDA-MB-435 [18]): <29%
11 | CCCCCCCCCCc1ccc(C(=O)O[C@@H]2CCC(NC(=O)[C@H](OC)[C@H](O)[C@@H](O)[C@H](O)/C=C/C(C)(C)C)C(=O)NC2)cc1 (stereo partly specified) | 2.6 | <6 | 30 | 6 | 76 | –
12 | CO[C@@H](C(=O)NC1CC[C@@H](OC(=O)C2CCCC2)CNC1=O)[C@H](O)[C@@H](O)[C@H](O)/C=C/C(C)(C)C (stereo partly specified) | 3 | <13 | 130 | 7.6 | 67 | –
13 | CO[C@@H](C(=O)NC1CC[C@@H](OC(=O)CCc2ccccc2)CNC1=O)[C@H](O)[C@@H](O)[C@H](O)/C=C/C(C)(C)C (stereo partly specified) | 5.3 | <12 | 10 | 6 | <53 | Body weight (MDA-MB-435 [19]): -3.1%; T/C (MDA-MB-435 [20]): <58%
14 | CCCCCCCCCCCCCOC(=O)[C@H]1CCC(NC(=O)[C@H](OC)[C@H](O)[C@@H](O)[C@H](O)/C=C/C(C)C)C(=O)NC1 (stereo partly specified) | – | – | – | – | – | IC50 (MDA-MB-435 [6]): 1 nM
15 | CCCCCCCCCCCCCC(=O)O[C@H]1CCC(NC(=O)[C@H](OC)[C@H](O)[C@@H](O)[C@H](O)/C=C/C(C)(C)C)C(=O)N(C)C1 (stereo partly specified) | 6.4 | <46 | 10 | 6.1 | <58 | –
16 | CO[C@@H](C(=O)NC1CC[C@@H](OC(=O)c2ccccc2)CNC1=O)[C@H](O)[C@@H](O)[C@H](O)/C=C/C(C)(C)C (stereo partly specified) | 5.6 | 80 | 370 | 5.5 | 93 | –
17 | CO[C@@H](C(=O)NC1CC[C@@H](OC(=O)C2CCCCCC2)CNC1=O)[C@H](O)[C@@H](O)[C@H](O)/C=C/C(C)(C)C (stereo partly specified) | 8.4 | <28 | 20 | 10.1 | <39 | –
18 | CCCCCCCCCCOc1ccc(C(=O)O[C@@H]2CCC(NC(=O)[C@H](OC)[C@H](O)[C@@H](O)[C@H](O)/C=C/C(C)(C)C)C(=O)NC2)cc1 (stereo partly specified) | -0.9 | 2 | 10 | 8.8 | <64 | –
19 | COc1cccc2c1C(=O)c1c(O)c3c(c(O)c1C2=O)C[C@@](O)(C(=O)CO)C[C@@H]3O[C@H]1C[C@H](N)[C@H](O)[C@H](C)O1 [DOXORUBICIN] | – | – | 400 | – | – | T/C (MDA-MB-435 [21]): <44%; Body weight (MDA-MB-435 [22]): 3.9%
20 | CCCCCc1ccc(C(=O)O[C@@H]2CCC(NC(=O)[C@H](OC)[C@H](O)[C@@H](O)[C@H](O)/C=C/C(C)(C)C)C(=O)NC2)cc1 (stereo partly specified) | 2.6 | 91 | 20 | 6 | 111 | –
